In patent US10584159B2, “Renilla based biosensors for monitoring biomolecule localization and trafficking in cells” (The Royal Institution for the Advancement of …, priority 2014, dated 2020):
Starred links: 1 amine or outer side, 2 acyl side, 3 side chain; linkers in the order of their positions; H or OH if unused. Positions of bridges follow the written chain, without caps; N, C: chain ends. Non-standard residues stand in square brackets, D forms with d. Residues, ends and D or L forms follow the SMILES beside them. No end group written: not given here. *: point of attachment. Leu(3R-OH,Nα-propionyl) = CCC(=O)N[C@H](C(=O)*)[C@H](O)C(C)C; X1 = CC(C)[C@@H](O[*:3])[C@H](N[*:1])C(=O)[*:2]; NMeT = CN[C@H](C(=O)O)[C@@H](C)O; dPhLac = O=C(O)[C@H](O)Cc1ccccc1; NMeA = CN[C@@H](C)C(=O)O; NMeDha = C=C(NC)C(=O)O

Tests used:
Type in all cases: cell-based
AT1R [1] = molecular target: T1, AT1R (Homo sapiens, UniProt P30556); test: PKN-based RhoA activation BRET assay (PKN-crib-RlucII/rGFP-CAAX) with AT1R
T1 construct: expressed in transfected cells; host or cells: HEK293SL
T1 sequence (P30556 1-359): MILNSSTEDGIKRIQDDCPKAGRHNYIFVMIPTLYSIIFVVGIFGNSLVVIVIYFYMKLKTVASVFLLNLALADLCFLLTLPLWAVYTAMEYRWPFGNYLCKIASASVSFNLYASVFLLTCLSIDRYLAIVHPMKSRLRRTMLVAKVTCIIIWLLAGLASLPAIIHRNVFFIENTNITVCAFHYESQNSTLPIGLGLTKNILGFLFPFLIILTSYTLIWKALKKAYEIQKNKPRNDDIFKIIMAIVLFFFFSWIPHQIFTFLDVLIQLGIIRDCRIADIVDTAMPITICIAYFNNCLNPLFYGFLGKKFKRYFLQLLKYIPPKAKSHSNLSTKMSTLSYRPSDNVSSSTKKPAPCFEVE
Protocol: (§1) BRET measurements for FIGS. 1B to 9D, 25D to 25F. The following day of transfection, cells were detached and replated onto poly-ornithine coated white 96-well plate at a density of 25,000 cells per well. The next day, cells were washed once with pre-warmed Tyrode's buffer (140 mM NaCl, 2.7 mM KCl, 1 mM CaCl2, 12 mM NaHCO3, 5.6 mM D-glucose, 0.5 mM MgCl2, 0.37 mM NaH2PO4, 25 mM HEPES, pH 7.4), and then stimulated with either various concentrations of ligands in Tyrode's buffer for the indicated time, or single concentration of ligands for various times at 37° C. For recycling experiment, after stimulating the cells with the ligands for 30 min at 37° C., they were washed either three times with ice-cold Tyrode's buffer or once with Tyrode's buffer/three times with acid (50 mM sodium citrate, pH 4.0)/two times with Tyrode's buffer. All the washing steps were performed on ice. […] The cell-permeable substrate, coelenterazine 400a was added at a final concentration of 5 μM in Tyrode's buffer 3-4 min before BRET measurements. […] The BRET signal was determined by calculating the ratio of the light intensity emitted by the GFP10 or rGFP over the light intensity emitted by the RlucII. All the BRET measurements were performed in triplicate at 37° C.
PKN-based RhoA activation assay. For FIGS. 25B-D, HEK293SL cells were grown in DMEM supplemented with 6% fetal bovine serum (FBS) and 20 μg/ml gentamycin, at 37° C. Cells were seeded at a density of 7.5×10^5 cells per 100 mm dishes and were transiently transfected the next day with constructs encoding AT1R (3 μg) along with PKN-crib-RlucII (90 ng) and rGFP-CAAX (480 ng) using calcium phosphate method as described previously. After 24 h, cells were detached and seeded onto poly-ornithine-coated 96-well white plates at a density of 25 000 cells per well in media. The next day, cells were washed once with Tyrode's buffer and left in 80 μl of Tyrode's buffer at 37° C. When indicated, cells were treated with Ubo-Qic 100 nM for 30 min or C3 toxin for 3 μg/ml (in FIG. 25I), 4 hours at 37° C. Cell stimulation and BRET measurements were done at RT. BRET signals were monitored by addition of Coel-400a to a final concentration of 5 μM using a Synergy2 (BioTek®) microplate reader. […] For FIG. 25B, a transfection mix of 200 ng of TPαR, 20 ng PKN-RlucII, 600 ng CAAX-rGFP, complemented to 2 μg with ssDNA and PEI at a ratio of PEI:DNA of 3:1, is added to 3 ml of Hek293SL (350 000 cells/ml). Cells were seeded on poly-D-lysine pretreated plates. […] Cells were stimulated for 2 min with the indicated doses of U46619. […] For FIGS. 25I and J, a transfection mix of 200 ng of TPαR, 20 ng PKN-RlucII, 600 ng CAAX-rGFP, complemented to 2 μg with ssDNA and PEI at a ratio of PEI:DNA of 3:1, is added to 3 ml of Hek293SL (350,000 cells/ml). Cells were seeded on poly-D-lysine pretreated plates. 24 h post-transfection, the Rho inhibitor (CT04; Cytoskeleton, Inc) was added when indicated, overnight at final concentration 2 μg/ml. 48 h post-transfection, cells were washed and preincubated in Tyrode +1 mM CaCl2 at 37° C. for 60 min then treated, as indicated, with 100 nM of U46619 or 1 μg/ml of Rho activator II (CN03; Cytoskeleton, Inc) for 1 min at 37° C. […] BRET was measured at 37° C., using a Tristar Microplate Reader (Berthold Technologies).

AT1R [2] = molecular target: T2, AT1R (Homo sapiens, UniProt P30556); test: AT1R trafficking to endosomes BRET (AT1R-RlucII/rGFP-endofinFYVE); design: expressed in transfected cells; host or cells: HEK293SL (HEK293 for the screen)
T2 sequence (P30556 with tags, fused parts or gaps): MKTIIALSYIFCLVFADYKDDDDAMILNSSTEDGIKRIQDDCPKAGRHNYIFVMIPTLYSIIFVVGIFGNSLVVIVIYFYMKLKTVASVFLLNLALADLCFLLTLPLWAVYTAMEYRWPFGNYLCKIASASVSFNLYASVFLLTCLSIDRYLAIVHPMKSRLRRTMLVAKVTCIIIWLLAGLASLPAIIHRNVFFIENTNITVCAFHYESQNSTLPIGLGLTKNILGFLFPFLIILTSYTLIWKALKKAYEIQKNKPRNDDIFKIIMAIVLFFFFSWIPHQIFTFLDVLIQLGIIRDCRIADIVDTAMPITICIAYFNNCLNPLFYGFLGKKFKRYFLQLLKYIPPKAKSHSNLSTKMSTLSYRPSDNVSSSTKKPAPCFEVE
Protocol: as §1
(§2) Data Analysis. Estimation of the t1/2 and the EC50 values for ligand-mediated endocytosis were calculated using the GraphPad® Prism curve fitting program The curves presented throughout this study, representing the best fits, and were generated using this GraphPad® Prism program as well.

AT1R [3] = molecular target: T2, AT1R; test: AT1R sorting to rab4 vesicles BRET (AT1R-RlucII/rGFP-rab4); design: expressed in transfected cells; host or cells: HEK293SL (HEK293 for the screen)
Protocol: as §1

AT1R [4] = molecular target: T2, AT1R; test: AT1R endocytosis BRET at plasma membrane (AT1R-RlucII/lyn-rGFP); design: signal peptide-Flag-human AT1R (spFlag-AT1R); signal peptide (N); expressed in transfected cells; host or cells: HEK293SL (HEK293 for the screen)
Protocol: as §1, §2

[5] = 100 nM Ubo, 30 min pre-incubation

Row | Compound | effect on AngII-mediated BRET increase (Rho sensor) (AT1R [1]; 100 nM Ubo, 100 nM AngII 70 s) | effect on DVG- and SI-mediated accumulation of receptors in endosomes (AT1R [2]; [5]) | reduction of targeting of AngII-bound AT1R to Rab5 containing endosomes (AT1R [2]; [5]) | effect on AngII-bound AT1R in Rab4 vesicles (AT1R [3]; 100 nM Ubo, 100 nM AngII 10 min) | effect on AngII-dependent AT1R internalization (AT1R [4]; [5]) | impact of Gq inhibition on ligand-mediated Rho activation (AT1R [1]; 100 nM Ubo-Qic 30 min, ligand 4 min) | time to maximal AT1R internalization into endosomes (AT1R [2]; 100 nM SI or 1 μM DVG) [min] | less efficacious than AngII at promoting AT1R concentration in early endosomes (AT1R [2]; 100 nM SI or 1 μM DVG vs 100 nM AngII) [%] | receptor accumulation in endosomes, compared to AngII (AT1R [2]; 40 min) | time at which BRET signal plateaued (AT1R [3]; 100 nM AngII, 100 nM SI, 1 μM DVG) [min] | EC50 (AT1R [4]; FIG. 6B, 30 min, read-out: potency to promote AT1R internalization) [nM]
1 | C=C1C(=O)N[C@@H](C)C(=O)N(C)[C@@H](C)C(=O)N[C@@H]([C@H](OC(=O)[C@@H](NC(=O)CC)[C@H](O)C(C)C)C(C)C)C(=O)N(C)[C@@H]([C@@H](C)OC)C(=O)O[C@H](C(C)C)[C@H](NC(C)=O)C(=O)O[C@H](Cc2ccccc2)C(=O)N1C [Ubo-QIC] (Ac-[X1][dPhLac][NMeDha]A[NMeA][X1](Leu(3R-OH,Nα-propionyl))[NMeT](Me); ester 1-C) | partially blocked | had no effect | more than 25% | increased AngII-bound AT1R in Rab 4 and Rab11 vesicles | did not prevent |  |  |  |  |  | 
2 | DRVYVHPG [DVG, [Asp^1,Val^5, Gly^8]-AngII] |  |  |  |  |  | did not affect | 10 | 40 | promoted less receptor accumulation in endosomes | 10 | 75
